Laboratory results as given in patent publication US5178662A, “Benzaldehyde acetal compounds, preparation process thereof, and herbicidal compositions containing the same as active ingredients” (Mitsui Toatsu Chemicals, Inc., priority 1990, dated 1993).

Experiments:
[1] = tested on: Johnsongrass; test: Upland foliar application test, johnsongrass; type: in vivo; conditions: Sorghum halepense, 960 h; foliar application at stage of 2-3 leaves, 50 g ai/a, emulsion, 40th day after spray; read-out: Herbicidal effects Johnsongrass
Experimental: (§1) Resin-made 1/1000-are pots were filled with the soil of an upland field. After they were fertilized, cotton and soybean were seeded and 3 cm soil covering was applied. Five days later, amaranth, common lambsquarters, barnyardgrass, green foxtail, large crabgrass and johnsongrass were seeded and 1 cm soil covering was applied. They were allowed to grow in a green house. When each plant grew to the stage of 2-3 leaves, an emulsion formulated from a predetermined amount of each test compound in a similar manner to the procedures described in Formulation Example 11 was diluted with water and then sprayed at a predetermined application rate by means of a pressure-operated sprayer. The application rate was controlled at 5 l per are. Influence to the crops and weeds were observed on the 40th day after the spray of the herbicides. The results are shown in Table 4 in which the degree of damages of each test plant and the degree of injury to each crop are shown in a similar manner to Test 2.

[2] = tested on: Cotton (Gossypium indicum); test: Upland foliar application test, crop injury cotton; type: in vivo; conditions: foliar application at stage of 2-3 leaves, 50 g ai/a, emulsion, 40th day after spray
Experimental: (§2) Resin-made 1/1000-are pots were filled with the soil of an upland field. After they were fertilized, cotton and soybean were seeded and 3 cm soil covering was applied. In addition, amaranth, common lambs-quarters, barnyardgrass, green foxtail, large crabgrass and johnsongrass were seeded and 1 cm soil covering was applied. One day later, a wettable powder prepared from a predetermined amount of each test compound in a similar manner to the procedures described in Formulation Example 1 was diluted with water and then sprayed evenly at an application rate equal to 10 l per are onto the surface of the soil by means of a pressure-operated sprayer. The weeds and crops were allowed to grow in a green house and influence to them were observed on the 50th day after the spray. The degree of damages of each test plant and the degree of injury to each crop were determined by measuring fresh weight in each group and indicated by % calculated according to the following formula. [formula]
as §1

[3] = tested on: Foxtail (Setaria viridis); test: Upland foliar application test, green foxtail; type: in vivo; conditions: 960 h, foliar application at stage of 2-3 leaves, 50 g ai/a, emulsion, 40th day after spray, read-out: Herbicidal effects Foxtail (Setaria viridis)
Experimental: as §2, §1

[4] = tested on: ALS (acetolactate syntase) from pea seedlings; test: ALS (acetolactate syntase) inhibition test, pea enzyme; type: biochemical; conditions: 10,000 ppm (0.5 μg/0.5 ml) of compound; 1 hour at 30° C.; absorbance at 525 nm
Experimental: (§3) To determine the selectivity in enzyme level between crops and weeds, an ALS inhibition test was conducted using pea as a typical broadleaf crop and barnyardgrass as a representative gramineous weeds.
(§4) After seeds of pea and barnyardgrass were allowed to germinate at 25° C. for 8-14 days in a dark place, partially-purified suspensions (Suspensions A) of acetolactate syntase were separately obtained from the seedlings in accordance with the procedures described in the literature, Plant Physiology, 75, 827-831. In a test tube, 0.5 mg of one of test compounds was weighed, followed by the addition of 0.15 ml of a 20 mM K2 HPO4 solution and 0.25 ml of a reaction substrate medium which consisted of 40 mM of K2 HPO4, 40 mM of sodium pyruvate, 1 mM of TPP, 1 mM of MgCl2 and 20 μM of FAD so that 0.4 ml of a reaction solution (Solution B) was prepared. Added to 0.4 ml of Solution B was 0.1 ml of Suspension A. After the resultant mixture was shaken for 1 hour in a thermostat water bath controlled at 30° C., 50 μl of 6N sulfuric acid were added to terminate the reaction.
(§5) Next, the test tube with the reaction-terminated liquid mixture contained therein was transferred into a thermostat water bath controlled at 60° C. and was heated for 15 minutes. Thereafter, 0.5 ml of a 0.5% creatine solution and 0.5 ml of a 5% alkaline α-naphthol solution were added, and the resultant mixture was maintained at 60° C. for 15 minutes. As a result, the test solution developed a pink-to-red color. After the above operation, the absorbance of the test solution at 525 nm was measured by a spectrophotometer (Absorbance 1 of Test Compound).
(§6) Further, the absorbance (Absorbance 2 of Blank) of a solution obtained by subjecting a portion of Solution B to the above procedures without addition of any test compound and the absorbance (Absorbance 3 of sulfuric acid) of another solution obtained by subjecting another portion of Solution B to the above procedures which using 50 μl of 6N sulfuric acid as a test compound were also measured.

[5] = tested on: Crabgrass (Digitaria adscendens); test: Upland soil application test, large crabgrass; type: in vivo; conditions: 1200 h, soil application one day after seeding, 50 g ai/a, wettable powder, fresh weight on 50th day after spray, read-out: Herbicidal effects Crabgrass (Digitaria adscendens)
Experimental: as §2

[6] = tested on: Crabgrass (Digitaria adscendens); test: Upland foliar application test, large crabgrass; type: in vivo; conditions: 960 h, foliar application at stage of 2-3 leaves, 50 g ai/a, emulsion, 40th day after spray, read-out: Herbicidal effects Crabgrass (Digitaria adscendens)
Experimental: as §2, §1

[7] = tested on: Barnyardgrass (Echinochloa crusgalli); test: Upland foliar application test, barnyardgrass; type: in vivo; conditions: Echinochloa crus-galli, 960 h; foliar application at stage of 2-3 leaves, 50 g ai/a, emulsion, 40th day after spray; read-out: Herbicidal effects Barnyardgrass (Echinochloa crusgalli)
Experimental: as §1

[8] = tested on: ALS (acetolactate syntase) from barnyardgrass seedlings; test: ALS (acetolactate syntase) inhibition test, barnyardgrass enzyme; type: biochemical; conditions: 10,000 ppm (0.5 μg/0.5 ml) of compound; 1 hour at 30° C.; absorbance at 525 nm
Experimental: as §3, §4, §5, §6

[9] = tested on: Amaranth (Amaranthus viridis); test: Upland foliar application test, amaranth; type: in vivo; conditions: 960 h, foliar application at stage of 2-3 leaves, 50 g ai/a, emulsion, 40th day after spray, read-out: Herbicidal effects Amaranth (Amaranthus viridis)
Experimental: as §2, §1

[10] = tested on: Amaranth (Amaranthus viridis); test: Upland soil application test, amaranth; type: in vivo; conditions: 1200 h, soil application one day after seeding, 50 g ai/a, wettable powder, fresh weight on 50th day after spray, read-out: Herbicidal effects Amaranth (Amaranthus viridis)
Experimental: as §2

[11] = tested on: common lambsquarters; test: Upland soil application test, common lambsquarters; type: in vivo; conditions: Chenopodium album, 1200 h; soil application one day after seeding, 50 g ai/a, wettable powder, fresh weight on 50th day after spray; read-out: Herbicidal effects Common lambquarters
Experimental: as §2

[12] = tested on: johnsongrass emerging from rhizome; test: Application test on johnsongrass emerging from rhizome; type: in vivo; conditions: foliar application at stage of 4-5 leaves, application rate of active ingredient 20 (unit not given), emulsion, 50th day after spray
Experimental: as §2
Resin-made 1/1000-are pots were filled with the soil of an upland field. After they were fertilized, rhizome of johnsongrass were transplanted to the pots and 3 cm soil covering was applied. They were allowed to grow in a green house. When each johnsongrass grew to the stage of 4-5 leaves, an emulsion formulated from a predetermined amount of each test compound in a similar manner to the procedures described in Formulation Example 11 was diluted with water and then sprayed at a predetermined application rate by means of a pressure-operated sprayer. The application rate was controlled at 5 l per are. The effect of each compound against the johnsongrass emerging from its rhizome was observed on the 50th day after the spray of the herbicides. The results are shown in Table 5 in which the herbicidal effect against johnsongrass is shown in a similar manner to Test 2.

[13] = tested on: common lambsquarters; test: Upland foliar application test, common lambsquarters; type: in vivo; conditions: Chenopodium album, 960 h; foliar application at stage of 2-3 leaves, 50 g ai/a, emulsion, 40th day after spray; read-out: Herbicidal effects Common lambquarters
Experimental: as §1

[14] = tested on: Soybean (Glycine max); test: Upland foliar application test, crop injury soybean; type: in vivo; conditions: foliar application at stage of 2-3 leaves, 50 g ai/a, emulsion, 40th day after spray
Experimental: as §1

[15] = tested on: Johnsongrass; test: Upland soil application test, johnsongrass; type: in vivo; conditions: Sorghum halepense, 1200 h; soil application one day after seeding, 50 g ai/a, wettable powder, fresh weight on 50th day after spray; read-out: Herbicidal effects Johnsongrass
Experimental: as §2

[16] = tested on: Foxtail (Setaria viridis); test: Upland soil application test, green foxtail; type: in vivo; conditions: 1200 h, soil application one day after seeding, 50 g ai/a, wettable powder, fresh weight on 50th day after spray, read-out: Herbicidal effects Foxtail (Setaria viridis)
Experimental: as §2

[17] = tested on: Barnyardgrass (Echinochloa crusgalli); test: Upland soil application test, barnyardgrass; type: in vivo; conditions: Echinochloa crus-galli, 1200 h; soil application one day after seeding, 50 g ai/a, wettable powder, fresh weight on 50th day after spray; read-out: Herbicidal effects Barnyardgrass (Echinochloa crusgalli)
Experimental: as §2

[18] = tested on: Cotton (Gossypium indicum); test: Upland soil application test, crop injury cotton; type: in vivo; conditions: soil application one day after seeding, 50 g ai/a, wettable powder, fresh weight on 50th day after spray
Experimental: as §2

[19] = tested on: Soybean (Glycine max); test: Upland soil application test, crop injury soybean; type: in vivo; conditions: soil application one day after seeding, 50 g ai/a, wettable powder, fresh weight on 50th day after spray
Experimental: as §2

| Structure (SMILES) | pest or weed control at 5000 g/ha [1] | Crop injury Cotton (Gossypium indicum) [2] | pest or weed control at 5000 g/ha [3] | Enzymoreaction inhibition rate (%) Pea [4] | pest or weed control at 5000 g/ha [5] | pest or weed control at 5000 g/ha [6] | pest or weed control at 5000 g/ha [7] | Enzymoreaction inhibition rate (%) Barnyardgrass [8] | pest or weed control at 5000 g/ha [9] | pest or weed control at 5000 g/ha [10] | pest or weed control at 5000 g/ha [11] | Herbicidal effect against johnsongrass emerging from rhizome [12] | pest or weed control at 5000 g/ha [13] | Crop injury Soybean (Glycine max) [14] | pest or weed control at 5000 g/ha [15] | pest or weed control at 5000 g/ha [16] | pest or weed control at 5000 g/ha [17] | Crop injury Cotton (Gossypium indicum) [18] | Crop injury Soybean (Glycine max) [19] |
| --- | --- | --- | --- | --- | --- | --- | --- | --- | --- | --- | --- | --- | --- | --- | --- | --- | --- | --- | --- |
| CCCCCCCOC(OCCCCCCC)c1ccccc1Oc1nc(OC)cc(OC)n1 [Compound No. 6] | 100% | 0% | 95% | 0% | 85% | 90% | 95% | 100% | 95% | 95% | 90% | 85% | 90% | 0% | 100% | 100% | 95% | 0% | 0% |
| CCCCCCCCOC(OCCCCCCCC)c1ccccc1Oc1nc(OC)cc(OC)n1 [Compound No. 7, 2-(4,6-dimethoxypyrimidin-2-yloxy)benzaldehyde di-n-octylacetal] | 100% | 0% | 90% | 0% | 80% | 90% | 95% | 100% | 90% | 80% | 85% | 80% | 85% | 0% | 100% | 90% | 85% | 0% | 0% |
